“Also recorded” adds a separate entry of the source.
Legend:
rats [1] = experiment: toxicant exposure of rats; modified proteins isolated from serum (immunoaffinity, 2D gel electrophoresis, LC/MS); format: in vivo; conditions: for modified proteins found in serum of treated animals, not found in the control group: rat serum, CCl4 0.1 and 1.0 mL/kg or ozone 0.8 and 2.0 ppm, specimens at 0-24 hours, anti-nitrotyrosine, chlorotyrosine, methionine sulfoxide resins, LC/MS
Description: Experimental groups consisted of three experimental and two control animals at each dose and specimens were collected at zero, one, two, four, eight, sixteen and twenty-four hours following ozone administration. In another experimental series, CCl4 was administered at a level of 0.1 and 1.0 mL/kg to rats to induce liver damage, and specimens were collected at time points as described above. […] Therefore, these high abundance proteins are preferably eliminated from serum samples prior to further processing.
In this experimental series, the specimens were purified by passing them over affinity resins containing antibodies against whole rat serum proteins and collecting the eluate. This purification methodology was effective in removing a significant amount of the high abundant serum proteins, which typically have a molecular weight in the range of 49-80 kiloDalton. […] Therefore, it was determined that concentration of the sample could be carried out very effectively by a process of molecular weight sieving which retained low molecular weight proteins (typically 50 kiloDalton and below) and excluded high molecular weight proteins. Such sieving was effectively accomplished utilizing a Superdex 75 column with a sample loading volume of 10% of the bed volume. Processes of this type have the advantage of being cheaper and faster than affirity resin based processes.
Once the concentration of high abundance serum proteins was decreased, the tissue proteins were purified from serum by immunoaffinity resins using antibodies to nitrotyrosine, chlorothyosine and methionine sulfoxide. […] Samples of interest were excised from the gel and those with sufficient concentration were analyzed by LC/MS.

rats [2] = conditions: in rats; cited from earlier work

| Compound | modified proteins found in serum of treated animals, not found in the control group (rats [1]) | organ damage (rats [1]; rats breathing ozone at 0.8 and 2.0 ppm) | organ toxicity (rats [2]) |
| --- | --- | --- | --- |
| O=[O+][O-] [ozone] | four proteins of interest were found | Lung damage was produced | toxic to the lungs |
| O=C1CCC(=O)N1c1cc(Cl)cc(Cl)c1 [NDPS, N-(3,5-dichlorophenyl) succinimide] | – | – | toxic to the kidney |
| ClC(Cl)(Cl)Cl [CCl4, carbon tetrachloride] | three out of the seven peptides from the CCl4 group were associated with mitochondria; also recorded: peroxiredoxin | – | known hepatotoxicant |
